From EP0559893A1, “XANTHINE DERIVATIVE” (priority 1990, dated 1992)

Key:
ddY male mice = experiment: Mouse locomotor activity; format: in vivo; settings: po, enhancement of locomotor activity, measured for 3 hours after administration, read-out: Minimum Effective Dose (mg/kg, p.o.)
Method: Five ddY male mice having a weight of 19 to 21 g were used for one group. A test compound and theophylline were orally administered to the mice and then the mice were out in an acrylic test cage (length 26 × width 45 × height 25 cm). The amount of locomotor activity of each mouse was measured with Automex II (manufactured by Columbus) for 3 hours after the administration. Test of significance between the control group and the test compound-administered group was performed by the Student's t-test, and enhancement of the locomotor activity was judged. Furthermore, the minimum effective dose showing a significant difference was determined.

dd male mice = experiment: Acute toxicity test; format: in vivo; settings: oral administration; mortality observed 7 days after the administration
Source text: Three dd male mice having a weight of 20 ± 1 g were used for one group. A test compound was orally administered to the mice.
The mortality was observed 7 days after the administration to determine the minimum lethal dose (MLD).

Adenosine A₂ receptor = Adenosine A₂ receptor (Rattus norvegicus, UniProt P30543); experiment: Adenosine A2 receptor binding test (3H-NECA binding); settings: for Ratio of Affinity with Receptor (A2 /A1 ): A2 (rat corpus striatum) versus A1 (guinea pig cerebrum); for inhibition at 100 µM: read-out: A2 Receptor Inhibition (%) 10^-4 M; for inhibition at 10 µM: read-out: A2 Receptor Inhibition (%) 10^-5 M
Adenosine A₁ receptor = biological target: T1, Adenosine A₁ receptor (Cavia porcellus, UniProt P47745); experiment: Adenosine A1 receptor binding test (3H-CHA binding); settings: for inhibition at 100 µM: read-out: A1 Receptor Inhibition (%) 10^-4 M; for inhibition at 10 µM: read-out: A1 Receptor Inhibition (%) 10^-5 M
T1 sequence (P47745 1-326): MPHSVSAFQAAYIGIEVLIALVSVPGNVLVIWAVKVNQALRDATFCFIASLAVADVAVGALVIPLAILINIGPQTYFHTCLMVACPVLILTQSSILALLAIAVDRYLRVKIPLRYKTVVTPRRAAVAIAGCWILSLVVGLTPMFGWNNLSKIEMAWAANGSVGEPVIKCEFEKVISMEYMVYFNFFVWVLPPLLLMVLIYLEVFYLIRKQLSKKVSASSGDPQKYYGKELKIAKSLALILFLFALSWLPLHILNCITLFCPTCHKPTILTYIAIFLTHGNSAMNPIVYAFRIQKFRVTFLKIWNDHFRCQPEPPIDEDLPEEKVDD

calvaria = experiment: Inhibitory effect on bone absorption (PTH-stimulated calcium release from cultured calvaria); format: cell-based, mouse; settings: test compound 10^-4 M, PTH 10^-8 M; for inhibition at 100 µM: Mus musculus, bone absorption, 96 hours, read-out: Inhibition Rate (%); for Ca Concentration (mg/dl) (n = 6, mean +/- S.E.M.): culture collected after 96 hours; for bone absorption by PTH (result in words): Duncan's test
Method: The calvaria was excised from a newborn dd mouse (5 to 6 days old) under sterile conditions. The calvaria was washed with a modified Dulbecco phosphate buffer physiological saline solution containing neither calcium nor magnesium (a product of Gibco Oriental), and divided into two parts along the center suture.
The culture medium was renewed 48 hours after the start of culturing. For determining the amount of calcium liberated from the bone by the action of PTH (bone absorption), the calcium content in the culture as collected after 96 hours of culturing was measured. The calcium concentration in the culture was measured with Calcium C Test Wako (manufactured by Wako Pure Chemical Industries, Ltd.). The bone absorption rate was calculated using the following equation. The test of significance of the inhibitory effect on bone absorption was performed by the Duncan's multi-weight comparative test. Inhibition rate (%) = [(CP - CD )/(CP - C₀)] × 100 [formula] CD indicates the total calcium concentration in the culture treated with both the test compound and PTH; CP indicates the total calcium concentration in the culture treated with only PTH (control); and C₀ indicates the total calcium concentration in the culture containing neither the test compound nor PTH.

Adenosine A₂ receptor, sequence (P30543 whole entry): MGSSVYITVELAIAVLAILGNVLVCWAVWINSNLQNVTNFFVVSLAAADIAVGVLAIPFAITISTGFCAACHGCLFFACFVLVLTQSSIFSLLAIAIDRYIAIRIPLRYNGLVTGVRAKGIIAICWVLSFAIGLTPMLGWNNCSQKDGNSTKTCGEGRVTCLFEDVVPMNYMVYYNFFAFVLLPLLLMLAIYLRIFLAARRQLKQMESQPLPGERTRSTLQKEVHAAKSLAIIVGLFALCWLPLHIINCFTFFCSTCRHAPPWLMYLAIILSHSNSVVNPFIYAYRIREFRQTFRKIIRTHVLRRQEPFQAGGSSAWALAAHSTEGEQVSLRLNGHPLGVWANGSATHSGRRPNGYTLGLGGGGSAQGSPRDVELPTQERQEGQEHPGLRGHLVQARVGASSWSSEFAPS

Cn1c(=O)c2[nH]cnc2n(C)c1=O [Theophylline, theophylline, reference compound] showed a minimal effective dose (ddY male mice) of 20 mg/kg.

CCCn1c(=O)c2c(nc(/C=C/c3ccc(OC)cc3)n2C)n(CCC)c1=O [Compound 10, 1,3-Dipropyl-8-[(E)-4-methoxystyryl]-7-methylxanthine] was tested, and the “MLD” value (dd male mice) was >300 mg/kg, the “Ratio of Affinity with Receptor (A2 /A1 )” value (shortened to “Ratio of Affinity”) (Adenosine A₂ receptor) was 51 and the inhibition at 100 µM (Adenosine A₂ receptor) was 95%. For the same compound, the inhibition at 10 µM (Adenosine A₂ receptor) was 95%, the Ki (Adenosine A₁ receptor) was 2 µM and the inhibition at 100 µM (Adenosine A₁ receptor) was 86%. It also gave an inhibition at 10 µM (Adenosine A₁ receptor) of 65%.

In the case of CCCn1c(=O)c2c(nc(/C=C/c3ccc(Cl)cc3)n2C)n(CCC)c1=O [Compound 6, 8-[(E)-4-Chlorostyryl]-7-methyl-1,3-dipropylxanthine], the “MLD” value (dd male mice) is reported as >300 mg/kg.

CCCn1c(=O)c2nc(/C=C/c3ccc(Cl)cc3)[nH]c2n(CCC)c1=O [Compound 5, 8-[(E)-4-Chlorostyryl]-1,3-dipropylxanthine] was tested, and the “MLD” value (dd male mice) was >300 mg/kg.

For CCCn1c(=O)c2nc(/C=C/c3ccc(OC)cc3)[nH]c2n(CCC)c1=O [Compound 9, 1,3-Dipropyl-8-[(E)-4-methoxystyryl]xanthine], the “MLD” value (dd male mice) was >300 mg/kg.

In the case of CCCn1c(=O)c2c(nc(/C(C)=C/c3ccccc3)n2C)n(CCC)c1=O [Compound 4, 1,3-Dipropyl-7-methyl-8-[(E)-α-methylstyryl]xanthine], the “MLD” value (dd male mice) is reported as >300 mg/kg.

CCCn1c(=O)c2c(nc(/C=C/c3ccc(OC)c(OC)c3)n2C)n(CCC)c1=O [Compound 12, 8-[(E)-3,4-Dimethoxystyryl]-1,3-dipropyl-7-methylxanthine] was tested, and the “MLD” value (dd male mice) was >300 mg/kg, the minimal effective dose (ddY male mice) was 0.63 mg/kg and the inhibition at 100 µM (Adenosine A₂ receptor) was 97%. It also gave an inhibition at 10 µM (Adenosine A₂ receptor) of 96%, a Ki (Adenosine A₁ receptor) of 3.1 µM and an inhibition at 100 µM (Adenosine A₁ receptor) of 74%. For the same compound, the inhibition at 10 µM (Adenosine A₁ receptor) was 61%.

For CCCn1c(=O)c2nc(/C=C/c3ccc(OC)c(OC)c3)[nH]c2n(CCC)c1=O [Compound 11, 8-[(E)-3,4-Dimethoxystyryl]-1,3-dipropylxanthine], the “MLD” value (dd male mice) was >300 mg/kg.

With CCCn1c(=O)c2c(nc(/C=C/c3cccs3)n2C)n(CCC)c1=O [Compound 18, 1,3-Dipropyl-7-methyl-8-[2-(E)-(2-thienyl)vinyl]xanthine] the “MLD” value (dd male mice) was >300 mg/kg.

For CCCn1c(=O)c2c(nc(/C=C/c3ccc(Cl)c(Cl)c3)n2C)n(CCC)c1=O [Compound 8, 8-[(E)-3,4-Dichlorostyryl]-1,3-dipropyl-7-methylxanthine], the “MLD” value (dd male mice) was >300 mg/kg.

In the case of CCCn1c(=O)c2nc(/C=C/c3cc(OC)c(OC)c(OC)c3)[nH]c2n(CCC)c1=O [Compound 13, 1,3-Dipropyl-8-[(E)-3,4,5-trimethoxystyryl]xanthine], the “MLD” value (dd male mice) is reported as >300 mg/kg.

For CCCn1c(=O)c2nc(/C=C/c3ccc(Cl)c(Cl)c3)[nH]c2n(CCC)c1=O [Compound 7, 8-[(E)-3,4-Dichlorostyryl]-1,3-dipropylxanthine], the “MLD” value (dd male mice) was >300 mg/kg.

For CCCn1c(=O)c2[nH]c(/C=C/c3ccco3)nc2n(CCC)c1=O [Compound 15, 1,3-Dipropyl-8-[2-(E)-(2-furyl)vinyl]xanthine], the “MLD” value (dd male mice) was >300 mg/kg.

In the case of CCCn1c(=O)c2c(nc(/C=C/c3ccccc3)n2C)n(CCC)c1=O [Compound 2, 1,3-Dipropyl-7-methyl-8-(E)-styrylxanthine], the minimal effective dose (ddY male mice) is reported as 1.25 mg/kg, the “Ratio of Affinity” value (Adenosine A₂ receptor) is reported as 52 and the inhibition at 100 µM (Adenosine A₂ receptor) is reported as 96%. The inhibition at 10 µM (Adenosine A₂ receptor) was 95%, the Ki (Adenosine A₁ receptor) was 1.4 µM and the inhibition at 100 µM (Adenosine A₁ receptor) was 82%. For the same compound, the inhibition at 10 µM (Adenosine A₁ receptor) was 64%.

In the case of CCCn1c(=O)c2nc(/C(C)=C/c3ccccc3)[nH]c2n(CCC)c1=O [Compound 3, 1,3-Dipropyl-8-[(E)-α-methylstyryl]xanthine], the “MLD” value (dd male mice) is reported as >300 mg/kg.

With CCCn1c(=O)c2nc(/C=C/c3ccccc3)[nH]c2n(CCC)c1=O [Compound 1, 1,3-Dipropyl-8-(E)-styrylxanthine] the “MLD” value (dd male mice) was >300 mg/kg.

With C=CCn1c(=O)c2c(nc(/C=C/c3cc(OC)c(OC)c(OC)c3)n2C)n(CC=C)c1=O [Compound 24, 1,3-Diallyl-7-methyl-8-[(E)-3,4,5-trimethoxystyryl]xanthine] the inhibition at 100 µM (Adenosine A₂ receptor) was 96%, the inhibition at 10 µM (Adenosine A₂ receptor) was 93% and the Ki (Adenosine A₁ receptor) was > 100 µM. For the same compound, the inhibition at 100 µM (Adenosine A₁ receptor) was 31% and the inhibition at 10 µM (Adenosine A₁ receptor) was 31%.

COc1cc(/C=C/c2nc3c(c(=O)n(C)c(=O)n3C)n2C)cc(OC)c1OC [Comparative Compound X, 1,3,7-trimethyl-8-[(E)-3,4,5-trimethoxystyryl]xanthine, reference compound] was tested, and the inhibition at 100 µM (calvaria) was 55%, the “Ca Concentration (mg/dl) (n = 6, mean +/- S.E.M.)” value (calvaria) was 10.32 ± 0.13 mg/dL and the “bone absorption by PTH (result in words)” value (calvaria) was “significantly inhibited bone absorption by PTH”.

For CCCn1c(=O)c2c(nc(/C=C/c3cc(OC)c(OC)c(OC)c3)n2C)n(CCC)c1=O [Compound 14, 1,3-Dipropyl-7-methyl-8-[(E)-3,4,5-trimethoxystyryl]xanthine], the “MLD” value (dd male mice) was >300 mg/kg, the minimal effective dose (ddY male mice) was 10 mg/kg and the inhibition at 100 µM (calvaria) was 119%. For the same compound, the “bone absorption inhibition rate compared with Comparative Compound X (result in words)” value (calvaria) was “significantly higher than that of Comparative Compound X”, the “Ca Concentration (mg/dl) (n = 6, mean +/- S.E.M.)” value (calvaria) was 7.66 ± 0.08 ++ mg/dl and the “bone absorption by PTH (result in words)” value (calvaria) was “significantly inhibited bone absorption by PTH”. The “Ratio of Affinity” value (Adenosine A₂ receptor) was 4600, the inhibition at 100 µM (Adenosine A₂ receptor) was 92% and the inhibition at 10 µM (Adenosine A₂ receptor) was 94%. For the same compound, the Ki (Adenosine A₁ receptor) was 65 µM, the inhibition at 100 µM (Adenosine A₁ receptor) was 50% and the inhibition at 10 µM (Adenosine A₁ receptor) was 30%.

With CCCn1c(=O)c2[nH]c(/C=C/c3cccs3)nc2n(CCC)c1=O [Compound 17, 1,3-Dipropyl-8-[2-(E)-(2-thienyl)vinyl]xanthine] the “MLD” value (dd male mice) was >300 mg/kg.
